Test results published in BigSolDB 2.1.

C[N+](C)(C)CCOC(=O)CCC(=O)O.[Cl-]
Settings	solubility (mole fraction)
in ethanol, 299 K	0.008
in ethanol, 300.8 K	0.01
in ethanol, 305.5 K	0.015
in ethanol, 310.9 K	0.02
in ethanol, 313.1 K	0.026
in ethanol, 315.6 K	0.028
in ethanol, 320.5 K	0.038
in ethanol, 322 K	0.044
in n-butanol, 300.4 K	0.003
in n-butanol, 308.8 K	0.004
in n-butanol, 312.7 K	0.006
in n-butanol, 318.8 K	0.008
in n-butanol, 322.4 K	0.009
in n-butanol, 326.4 K	0.012
in n-butanol, 329.8 K	0.014
in n-butanol, 338.8 K	0.016
in n-propanol, 299.2 K	0.006
in n-propanol, 305.5 K	0.008
in n-propanol, 310.9 K	0.01
in n-propanol, 318.7 K	0.013
in n-propanol, 325.2 K	0.02
in n-propanol, 328.9 K	0.025
in n-propanol, 333.2 K	0.031
in n-propanol, 336.1 K	0.039

CC(=O)[O-].C[N+](C)(C)CCO
Settings	solubility (mole fraction)
in ethanol, 259.8 K	0.049
in ethanol, 261.8 K	0.067
in ethanol, 263.9 K	0.09
in ethanol, 265.7 K	0.112
in ethanol, 267.1 K	0.13
in ethanol, 267.8 K	0.143
in ethanol, 271.7 K	0.174
in ethanol, 272.1 K	0.184
in ethanol, 276.6 K	0.228
in ethanol, 278.5 K	0.252
in ethanol, 282.8 K	0.29
in ethanol, 286.1 K	0.319
in n-butanol, 268.2 K	0.023
in n-butanol, 273 K	0.048
in n-butanol, 276.9 K	0.074
in n-butanol, 279.9 K	0.102
in n-butanol, 281.8 K	0.136
in n-butanol, 284.2 K	0.172
in n-butanol, 287.7 K	0.209
in n-butanol, 290.4 K	0.233
in n-butanol, 295.4 K	0.293
in n-butanol, 297.7 K	0.317
in n-propanol, 263.8 K	0.0191
in n-propanol, 266.9 K	0.0394
in n-propanol, 270.3 K	0.062
in n-propanol, 273.1 K	0.0844
in n-propanol, 274.1 K	0.11
in n-propanol, 276 K	0.144
in n-propanol, 277.7 K	0.174
in n-propanol, 279.9 K	0.211
in n-propanol, 280.9 K	0.234
in n-propanol, 282.7 K	0.269
in n-propanol, 285.2 K	0.316

C[N+](C)(C)CCOC(=O)CCCC(=O)O.[Cl-]
Settings	solubility (mole fraction)
in ethanol, 300.2 K	0.006
in ethanol, 310.6 K	0.008
in ethanol, 316.8 K	0.01
in ethanol, 318.5 K	0.012
in ethanol, 322.1 K	0.017
in ethanol, 325.4 K	0.023
in ethanol, 333.2 K	0.033
in ethanol, 335.8 K	0.039
in ethanol, 338.1 K	0.043
in ethanol, 339.4 K	0.055
in n-butanol, 304.8 K	0.001
in n-butanol, 318.7 K	0.0019
in n-butanol, 323.8 K	0.0022
in n-butanol, 327.5 K	0.0025
in n-butanol, 330.4 K	0.0029
in n-butanol, 335.1 K	0.0035
in n-butanol, 341 K	0.004
in n-propanol, 305.4 K	0.002
in n-propanol, 306.6 K	0.003
in n-propanol, 309.4 K	0.003
in n-propanol, 315.5 K	0.004
in n-propanol, 319.9 K	0.005
in n-propanol, 324.6 K	0.008
in n-propanol, 331.2 K	0.011
in n-propanol, 335.1 K	0.013
in n-propanol, 338.5 K	0.017

C[N+](C)(C)CCO.[Cl-]
Settings	solubility (mole fraction)
in ethanol, 269.8 K	0.017
in ethanol, 276.4 K	0.027
in ethanol, 281.8 K	0.038
in ethanol, 287.2 K	0.054
in ethanol, 290.5 K	0.066
in ethanol, 292.4 K	0.072
in ethanol, 296.7 K	0.082
in ethanol, 300.5 K	0.089
in ethanol, 305.7 K	0.098
in ethanol, 308.4 K	0.109
in ethanol, 315.3 K	0.125
in ethanol, 321.6 K	0.138
in n-butanol, 314.6 K	0.031
in n-butanol, 321.2 K	0.049
in n-butanol, 328.6 K	0.068
in n-butanol, 340.8 K	0.086
in n-butanol, 346.4 K	0.109
in n-butanol, 349.4 K	0.131
in n-butanol, 352.9 K	0.147
in n-propanol, 288.9 K	0.015
in n-propanol, 295.7 K	0.023
in n-propanol, 302.3 K	0.039
in n-propanol, 308.7 K	0.05
in n-propanol, 309.6 K	0.059
in n-propanol, 316.5 K	0.073
in n-propanol, 323.2 K	0.086
in n-propanol, 330.7 K	0.108
in n-propanol, 335.3 K	0.129
in n-propanol, 338 K	0.153
